Measurements published in patent US12570666B2, “Furoindazole derivatives” (Bayer Aktiengesellschaft, priority 2019, dated 2026).

Biological target: T1, human GPR84 receptor (Homo sapiens, UniProt Q9NQS5)
T1 construct: frozen aliquots prepared by acCELLerate; host or cells: CHO-K1
Test: cAMP HTRF assay for identification of cellular GPR84 antagonists
Assay type: cell-based
Conditions: CHO-K1 cells stably expressing human GPR84; Forskolin + agonist 6-OAU (EC80); average or median values
Method in brief: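 Forskolin-stimulated CHO-K1 cells stably expressing human GPR84, agonist-suppressed cAMP measured by HTRF (665/620 ratio) after lysis. Compounds at 11 concentrations, 20 μM to 0.07 nM, duplicate; normalized to DMSO and no-agonist controls; IC50 by 4-parameter fit.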

T1 sequence (Q9NQS5 whole entry): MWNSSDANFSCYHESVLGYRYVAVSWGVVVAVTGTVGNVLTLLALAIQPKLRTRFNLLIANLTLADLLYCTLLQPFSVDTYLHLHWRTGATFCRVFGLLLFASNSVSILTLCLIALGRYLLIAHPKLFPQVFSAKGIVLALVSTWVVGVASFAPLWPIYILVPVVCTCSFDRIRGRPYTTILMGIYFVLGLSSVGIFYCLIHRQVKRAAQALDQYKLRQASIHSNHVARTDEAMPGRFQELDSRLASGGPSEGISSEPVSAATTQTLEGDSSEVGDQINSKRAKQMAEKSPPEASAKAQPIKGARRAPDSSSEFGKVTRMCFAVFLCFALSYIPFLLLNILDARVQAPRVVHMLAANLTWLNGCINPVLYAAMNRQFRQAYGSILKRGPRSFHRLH

SMILES | IC50 [nM]
Cc1c(C(=O)NC[C@H]2CCCO2)oc2c1-c1nn(C[C@@H]3COc4ncccc4O3)cc1CC2 (racemic) [Example 51, 2-[(2R/S)-2,3-dihydro[1,4]dioxino[2,3-b]pyridin-2-ylmethyl]-8-methyl-N-[(2R/S)-tetrahydrofuran-2-ylmethyl]-4,5-dihydro-2H-furo[2,3-g]indazole-7-carboxamide] | 56
Cc1c(C(=O)NCC2COCC(C)(C)O2)oc2c1-c1nn(Cc3ccccn3)cc1CC2 (racemic) [Example 181] | 102
CC1(C)CC[C@H](CNC(=O)c2oc3c(c2C(F)(F)F)-c2nn(C[C@H]4COCCO4)cc2CC3)O1 (single isomer, unassigned) [Example 223-1, N-{[(2R or 2S)-5,5-dimethyloxolan-2-yl]methyl}-2-{[(2S)-1,4-dioxan-2-yl]methyl}-8-(trifluoromethyl)-4,5-dihydro-2H-furo[2,3-g]indazole-7-carboxamide] | 12
Cc1c(C(=O)NC[C@@H]2COCCO2)oc2c1-c1nn(CC3CN(C(=O)OC(C)(C)C)C3)cc1CC2 [Example 110, tert-butyl 3-[(7-{[(2R)-1,4-dioxan-2-ylmethyl]carbamoyl}-8-methyl-4,5-dihydro-2H-furo[2,3-g]indazol-2-yl)methyl]azetidine-1-carboxylate] | 10
Cc1c(C(=O)NC[C@@H]2CCCO2)oc2c1-c1nn(C[C@H]3COCCO3)cc1C(C)C2 (mixture of isomers) [Example 249, (4±)-2-{[(2S)-1,4-dioxan-2-yl]methyl}-4,8-dimethyl-N-{[(2S)-oxolan-2-yllmethyl}-4,5-dihydro-2H-furo[2,3-g]indazole-7-carboxamide] | 122
Cc1ccc(Cn2cc3c(n2)-c2c(oc(C(=O)NC[C@@H]4CCCO4)c2C(F)(F)F)CC32CC2)cn1 [Example 213, 2′-[(6-methylpyridin-3-yl)methyl]-N-{[(2S)-oxolan-2-yl]methyl}-8′-(trifluoromethyl)-2′,5′-dihydrospiro[cyclopropane-1,4′-furo[2,3-g]indazole]-7′-carboxamide] | 7
Cc1c(C(=O)NC[C@@H]2COCCO2)oc2c1-c1nn(Cc3noc(C4CC4)n3)cc1CC2 [Example 138] | 43
COCCNC(=O)c1oc2c(c1C)-c1nn(Cc3ccccn3)cc1CC2 [Example 29, N-(2-methoxyethyl)-8-methyl-2-(pyridin-2-ylmethyl)-4,5-dihydro-2H-furo[2,3-g]indazole-7-carboxamide] | 290
Cc1c(C(=O)NC[C@@H]2CCCO2)oc2c1-c1nn(Cc3ncco3)cc1CC2 [Example 188] | 223

Second part, the molecule after the results:

IC50 [nM] | SMILES
53 | Cc1ccc(Cn2cc3c(n2)-c2c(oc(C(=O)NCc4ccn(C)n4)c2C(F)(F)F)CC32CCC2)nc1 [Example 279, N-[(1-Methyl-1H-pyrazol-3-yl)methyl]-2′-[(5-methylpyridin-2-yl)methyl]-8′-(trifluormethyl)-2′,5′-dihydrospiro[cyclobutan-1,4′-furo[2,3-g]indazol]-7′-carboxamide]
760 | CCN1CCC(Cn2cc3c(n2)-c2c(oc(C(=O)NC[C@@H]4COCCO4)c2C(F)(F)F)CC3)CC1 [Example 312, N-{[(2R)-1,4-dioxan-2-yl]methyl}-2-[(1-ethylpiperidin-4-yl)methyl]-8-(trifluoromethyl)-4,5-dihydro-2H-furo[2,3-g]indazole-7-carboxamide]
10 | O=C(NC[C@@H]1COCCO1)c1oc2c(c1C(F)(F)F)-c1nn(CC3CC3)cc1CC2 [Example 282, 2-(cyclopropylmethyl)-N-{[(2R)-1,4-dioxan-2-yl]methyl}-8-(trifluoromethyl)-4,5-dihydro-2H-furo[2,3-g]indazole-7-carboxamide]
195 | C[C@@H]1Cc2oc(C(=O)NCc3cnc(C(F)(F)F)nc3)c(C(F)(F)F)c2-c2nn(C[C@H]3COCCO3)cc21 (single isomer, unassigned) [Example 262, (4R or 4S)-2-{[(2S)-1,4-dioxan-2-yl]methyl}-4-methyl-8-(trifluoromethyl)-N-{[2-(trifluoromethyl)pyrimidin-5-yl]methyl}-4,5-dihydro-2H-furo[2,3-g]indazole-7-carboxamide]
